Values joined by “and” are separate entries in the source; they are usually repeats but may differ in a detail not shown here. Identical values can stand only once. “Also recorded” adds a separate entry of the source.
Assays:
[1] = tested on: punch hole injuries to the liver; settings: pig, in vivo; cited from earlier work
[2] = tested on: gastrointestinal endoscopic procedures and cardiovascular surgery; settings: 2.5% w/v in water, topical hemostat; cited from earlier work
[3] = in solution before DMEM; RADA16 assumed 2.5% wt/vol, IEIK13 concentration unknown; cited from earlier work
[4] = tested on: nasal mucosal injuries on the middle turbinate and opposing nasal septum; assay: Intra-operative time to hemostasis, sheep endoscopic nasal surgery model; type: in vivo, Merino sheep
Experimental: Surgical Methods—On the day prior to surgery, the animals were weighed, and each nostril was randomly assigned by computer randomization to receive PuraSinus, FLOSEAL or no treatment to each nostril after the surgical turbinoplasty. Each animal had food withheld for 24 hours and water withheld for 8 to 12 hours prior to the day of surgery as per the standard anesthetic procedure. The animals were sedated with a weight adjusted dose of intravenous diazepam. Following sedation, a percutaneous jugular catheter was inserted and secured, with induction achieved by further weight adjusted doses of intravenous diazepam and ketamine. The animals were placed in sternal recumbency for insertion of a size-appropriate endotracheal tube. Anesthesia was maintained through inhaled 1-2% isofluorane with parenteral propofol and ketamine given when necessary. Each animal was then given a prophylactic dose of long-acting antibiotic, weight adjusted oxytetracycline to cover for postoperative infections. The nasal cavity was prepared by packing with surgical pledgets soaked in 1% lignocaine and phenylephrine mixture. The middle turbinate was infiltrated with the same lignocaine/phenylephrine mixture via a small gauge needle in numerous sites over the middle turbinate. The use of vasoconstrictors and decongestants such as lignocaine and phenylephrine both topically and injected locally is standard pre-operatively in patients undergoing turbinoplasty (Ahmed S. et al., J. Coll. Physicians Surg. Pak. 26(6): 531-2 (2016)) The animals' vital signs were monitored throughout the procedure.
Prior to making incisions, all sheep were first examined under endoscope to screen for any nasal septum deviations. Only animals that had straight septum and uniform space between septum and middle turbinate were used. […]
Intraoperative observations—The degree of bleeding/hemostasis was assessed by an independent observer who was blinded to the appearance of FLOSEAL and PuraSinus (SEQ ID NO:1), and to the background of these two hemostatic agents. […]

[5] = 1% in water; cited from earlier work
[6] = tested on: mucosa at the operated middle turbinate sites; assay: Histopathology of the surgical site at 6 weeks (H&E, 6 markers of wound healing), sheep model; type: in vivo, Merino sheep
Experimental: Termination—At day 42, the animals were euthanized with standard terminal procedures through an intravenous injection of sodium pentobarbital. Post-termination, the mucosa at the operated middle turbinate sites were excised and prepared via hematoxylin and eosin staining by a veterinary histopathologist using 6 different markers of wound healing as shown in Table 3. [table] Histopathology observations—Vertical incisions through the roof and floor of the nasal cavity were performed during necropsy after endoscopic evaluation. This allowed both lateral nasal walls to be opened outwards from the septum whereby the operated mucosa adjacent to the vomer could be easily identified and excised atraumatically. Specimens were preserved in 10% neutral buffered formalin and transported for hematoxylin and eosin staining and slide preparation. Example specimens are shown in FIGS. 4A and 4B for PuraSinus treated tissue and FIGS. 5A and 5B for FLOSEAL treated tissue. Individual sample observations are presented in Appendix 3.

[7] = individual site, 6 weeks, scale 0-3, listed as P
[8] = individual site, 6 weeks, scale −1-1, listed as P

CC(=O)N[C@@H](CCCNC(=N)N)C(=O)N[C@@H](C)C(=O)N[C@@H](CC(=O)O)C(=O)N[C@@H](C)C(=O)N[C@@H](CCCNC(=N)N)C(=O)N[C@@H](C)C(=O)N[C@@H](CC(=O)O)C(=O)N[C@@H](C)C(=O)N[C@@H](CCCNC(=N)N)C(=O)N[C@@H](C)C(=O)N[C@@H](CC(=O)O)C(=O)N[C@@H](C)C(=O)N[C@@H](CCCNC(=N)N)C(=O)N[C@@H](C)C(=O)N[C@@H](CC(=O)O)C(=O)N[C@@H](C)C(N)=O [PuraSinus, Ac-RADARADARADARADA-NH2]
Inflammatory cell infiltration due to the gel in the wound [1]: absence if inflammatory cell infiltration
Successful hemostasis rates [2]: 72.6-100%
Median loss modulus G″ [3]: 24 Pa
Median storage modulus G′ [3]: 384 Pa
Time to hemostasis ([4]; individual surgical site (sheep number, nostril), listed as P): 120 sec and 102 sec and 125 sec and 130 sec (3×) and 140 sec and 150 sec (2×) and 70 sec and 220 sec and 85 sec and 180 sec and 190 sec and 210 sec and 95 sec and 290 sec and 58 sec and 131 sec and 87 sec
Intra-operative hemostasis time ([4]; sheep, mean±SD, 20 sites per group): 139.7 ± 56.2 s
Hemostasis compared to untreated control ([4]; sheep, result in words): statistically significant reduction in time to hemostasis; also recorded: improved hemostasis
Increase in storage modulus G′ after DMEM treatment relative to before [5]: 43.5 fold
Angiogenesis (A): number of sites Grade 0 ([6]; 6 weeks): 9
Angiogenesis (A): number of sites Grade 1 ([6]; 6 weeks): 6
Angiogenesis (A): number of sites Grade 2 ([6]; 6 weeks): 4
Angiogenesis (A): number of sites Grade 3 ([6]; 6 weeks): 1
Epithelial erosion (EE): number of sites Grade 0 ([6]; 6 weeks): 5
Epithelial erosion (EE): number of sites Grade 1 ([6]; 6 weeks): 8
Epithelial erosion (EE): number of sites Grade 2 ([6]; 6 weeks): 6
Epithelial erosion (EE): number of sites Grade 3 ([6]; 6 weeks): 1
Goblet cells (GC): number of sites Grade 0 ([6]; 6 weeks): 6
Goblet cells (GC): number of sites Grade +1 ([6]; 6 weeks): 6
Goblet cells (GC): number of sites Grade −1 ([6]; 6 weeks): 8
Inflammatory infiltrate (II): number of sites Grade 0 ([6]; 6 weeks): 3
Inflammatory infiltrate (II): number of sites Grade 1 ([6]; 6 weeks): 13
Inflammatory infiltrate (II): number of sites Grade 2 ([6]; 6 weeks): 4
Inflammatory infiltrate (II): number of sites Grade 3 ([6]; 6 weeks): 0
Sero-mucous glands (SMC): number of sites Grade 0 ([6]; 6 weeks): 14
Sero-mucous glands (SMC): number of sites Grade +1 ([6]; 6 weeks): 0
Sero-mucous glands (SMC): number of sites Grade −1 ([6]; 6 weeks): 6
Submucosal fibrosis (SF): number of sites Grade 0 ([6]; 6 weeks): 4
Submucosal fibrosis (SF): number of sites Grade 1 ([6]; 6 weeks): 12
Submucosal fibrosis (SF): number of sites Grade 2 ([6]; 6 weeks): 3
Submucosal fibrosis (SF): number of sites Grade 3 ([6]; 6 weeks): 1
Mucosal regeneration / wound healing on histopathology ([6]; 6 weeks, result in words): favorable outcomes for wound healing enhancement across all 6 metrics; also recorded: enhancement to mucosal regeneration; also recorded: more commonly associated with enhanced mucosal regeneration; also recorded: improved outcome
Angiogenesis (A): Mean score ([6]; 6 weeks, scale 0-3): 0.85
Epithelial erosion (EE): Mean score ([6]; 6 weeks, scale 0-3): 1.15
Inflammatory infiltrate (II): Mean score ([6]; 6 weeks, scale 0-3): 1.05
Submucosal fibrosis (SF): Mean score ([6]; 6 weeks, scale 0-3): 1.05
Goblet cells (GC): Mean score ([6]; 6 weeks, scale −1-1): −0.1
Sero-mucous glands (SMC): Mean score ([6]; 6 weeks, scale −1-1): −0.3
A (angiogenesis) grade [6, 7]: 1 (6×) and 3 and 0 (9×) and 2 (4×)
EE (epithelial erosion) grade [6, 7]: 1 (8×) and 2 (6×) and 0 (5×) and 3
II (inflammatory infiltrate) grade [6, 7]: 2 (4×) and 1 (13×) and 0 (3×)
SF (submucosal fibrosis) grade [6, 7]: 1 (12×) and 2 (3×) and 0 (4×) and 3
GC (goblet cells) grade [6, 8]: −1 (8×) and 1 (6×) and 0 (6×)
SMC (sero-mucous glands) grade [6, 8]: −1 (6×) and 0 (14×)
6-week histopathology scores ([6]; result in words, driven by reduced submucosal fibrosis and angiogenesis): significantly lower
